GI50 and TGI data for two compounds are collected here from PubChem BioAssay (NCI).

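Test compounds were applied to cells in 96-well plates for 48 hours at 5 doses. GI50 is the concentration that inhibits growth by half. TGI is the concentration that stops growth completely.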

Among the test systems are ACHN renal; EKVX NSCLC; HT29 colon; IGROV1 ovarian; MCF7 breast; NCI-H522 lung; SK-MEL-5 melanoma; SNB-19 CNS; TK-10 renal; UO-31 renal.
Common to all, as to test: NCI anticancer screen, dose series, 48 h

Turning to `Fc1ccc(-c2ncn(C3CCNCC3)c2-c2ccnc(Oc3cccc(F)c3)n2)cc1`, the GI50 in the assay with ACHN renal was 8.58 µM; in the assay with EKVX NSCLC it was more than 25 µM; with HT29 colon it was 4.5 µM; in the assay on IGROV1 ovarian, 12.4 µM; in the assay on MCF7 breast it was 7.38 µM; in the assay with NCI-H522 lung, more than 14.7 µM. For the same compound, the GI50 with SK-MEL-5 melanoma is 4.04 µM; in the assay on SNB-19 CNS it was more than 25 µM; in the assay on TK-10 renal it was 17.1 µM; in the assay with UO-31 renal, 6.77 µM. In addition, the TGI with ACHN renal was more than 25 µM; with EKVX NSCLC it was more than 25 µM; with HT29 colon, 8.6 µM; in the assay with IGROV1 ovarian it was more than 25 µM; in the assay on MCF7 breast, more than 20.4 µM; with NCI-H522 lung, more than 25 µM. Besides, the TGI was 8.73 µM in the assay with SK-MEL-5 melanoma, more than 25 µM in the assay with SNB-19 CNS, more than 25 µM with TK-10 renal and more than 25 µM in the assay with UO-31 renal.
Regarding `Cn1c(O)c(C(=O)Nc2ccc([N+](=O)[O-])cc2)c(=O)n(C)c1=S`, the TGI in the assay with ACHN renal is more than 27.3 µM; with EKVX NSCLC it was more than 23.2 µM; in the assay with HT29 colon, 8.33 µM; with IGROV1 ovarian, 10.1 µM; in the assay on MCF7 breast, more than 100 µM; with NCI-H522 lung, more than 100 µM. The TGI stood at 5.84 µM with SK-MEL-5 melanoma, 10.1 µM in the assay on SNB-19 CNS, 10.7 µM in the assay with TK-10 renal and 12.8 µM with UO-31 renal.
